In patent US20100144733A1, “Compounds, compositions and methods comprising heteroaromatic derivatives” (Institute for OneWorld Health, priority 2008, published 2010):

Each molecule was assayed against T1, CFTR (Homo sapiens, UniProt P13569) (assay: T84 assay (FLIPR membrane potential dye, forskolin/IBMX-stimulated CFTR channel activity)). Conditions: imidazole and triazole-containing compounds (Tables 13, 14, 14′), read-out: IC50 (μM) (T84 assay).
T1 construct: endogenous in cells; host or cells: T84 human colonic cells (ECACC)
T1 sequence (P13569 whole entry): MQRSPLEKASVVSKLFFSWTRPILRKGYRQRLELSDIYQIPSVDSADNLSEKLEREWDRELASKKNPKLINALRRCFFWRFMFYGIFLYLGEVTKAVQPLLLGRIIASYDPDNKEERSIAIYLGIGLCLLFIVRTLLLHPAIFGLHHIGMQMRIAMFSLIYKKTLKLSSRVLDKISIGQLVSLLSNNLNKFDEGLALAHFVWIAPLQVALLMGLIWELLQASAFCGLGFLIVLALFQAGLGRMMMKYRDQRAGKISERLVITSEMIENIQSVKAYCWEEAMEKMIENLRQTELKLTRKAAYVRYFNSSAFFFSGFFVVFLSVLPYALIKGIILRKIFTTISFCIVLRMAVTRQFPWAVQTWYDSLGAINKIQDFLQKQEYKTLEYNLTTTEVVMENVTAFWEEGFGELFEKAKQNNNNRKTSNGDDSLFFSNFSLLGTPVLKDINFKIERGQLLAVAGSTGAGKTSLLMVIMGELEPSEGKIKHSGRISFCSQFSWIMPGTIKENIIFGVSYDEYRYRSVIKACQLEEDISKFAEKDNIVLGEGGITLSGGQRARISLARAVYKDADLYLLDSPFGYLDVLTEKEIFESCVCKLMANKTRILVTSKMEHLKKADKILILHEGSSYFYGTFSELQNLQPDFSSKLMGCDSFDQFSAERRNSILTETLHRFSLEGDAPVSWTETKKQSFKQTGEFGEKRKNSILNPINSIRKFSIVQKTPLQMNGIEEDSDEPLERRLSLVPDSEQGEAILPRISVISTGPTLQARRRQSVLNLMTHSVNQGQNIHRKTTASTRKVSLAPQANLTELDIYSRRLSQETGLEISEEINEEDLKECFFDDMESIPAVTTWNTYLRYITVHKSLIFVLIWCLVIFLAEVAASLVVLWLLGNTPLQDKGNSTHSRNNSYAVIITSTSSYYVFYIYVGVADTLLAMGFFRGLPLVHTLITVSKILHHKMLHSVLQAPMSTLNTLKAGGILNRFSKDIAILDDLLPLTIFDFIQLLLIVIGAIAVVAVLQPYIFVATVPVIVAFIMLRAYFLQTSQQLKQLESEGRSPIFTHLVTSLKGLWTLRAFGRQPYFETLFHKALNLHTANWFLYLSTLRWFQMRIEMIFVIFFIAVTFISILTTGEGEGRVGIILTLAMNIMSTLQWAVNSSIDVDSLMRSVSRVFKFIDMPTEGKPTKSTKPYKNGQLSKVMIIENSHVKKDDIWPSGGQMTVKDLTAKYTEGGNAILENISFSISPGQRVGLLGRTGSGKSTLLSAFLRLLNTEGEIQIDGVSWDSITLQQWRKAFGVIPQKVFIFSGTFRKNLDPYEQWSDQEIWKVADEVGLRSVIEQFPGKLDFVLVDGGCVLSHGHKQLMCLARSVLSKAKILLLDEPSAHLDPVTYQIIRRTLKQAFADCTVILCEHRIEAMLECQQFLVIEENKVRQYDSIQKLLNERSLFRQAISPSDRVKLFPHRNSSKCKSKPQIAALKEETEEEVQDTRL
Assay type: cell-based
Method in brief: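 Fluorescence from a membrane potential dye in T84 monolayers (HBSS with 10 mM Hepes) is followed each second for 150 s. Cells are exposed to test compound during the 45 min dye loading, then challenged with forskolin (10 μM) and IBMX (100 μM) to open CFTR. Inhibitors suppress the depolarization-driven fluorescence increase.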

Row | IC50 [µM] | Compound
1 | 2.8 | CC(C)(C)c1ccc(CN(CCOCCOCCOCCOCCOCCOCc2ccccc2)C(=O)c2ncn(-c3cc(Cl)c(O)c(Cl)c3)n2)cc1 [116i, N-(4-tert-butylbenzyl)-1-(3,5-dichloro-4-hydroxyphenyl)-N-(1-phenyl-2,5,8,11,14,17-hexaoxanonadecan-19-yl)-1H-1,2,4-triazole-3-carboxamide]
2 | 21.4 | COCCOCCOCCOCCOCCOCCOCCOCCN(Cc1ccc(C(C)(C)C)cc1)C(=O)c1ncn(-c2cc(Cl)c(O)c(Cl)c2)n1 [117i, N-(4-tert-butylbenzyl)-1-(3,5-dichloro-4-hydroxyphenyl)-N-(2,5,8,11,14,17,20,23-octaoxapentacosan-25-yl)-1H-1,2,4-triazole-3-carboxamide]
3 | 17.3 | COCCOCCOCCOCCOCCN(Cc1ccc(C(C)(C)C)cc1)C(=O)c1ncn(-c2cc(Cl)c(O)c(Cl)c2)n1 [118i, N-(4-tert-butylbenzyl)-1-(3,5-dichloro-4-hydroxyphenyl)-N-(2,5,8,11,14-pentaoxahexadecan-16-yl)-1H-1,2,4-triazole-3-carboxamide]
4 | 5.9 | COCCOCCOCCOCCN(Cc1ccc(C(C)(C)C)cc1)C(=O)c1ncn(-c2cc(Cl)c(O)c(Cl)c2)n1 [120i, N-(4-tert-butylbenzyl)-1-(3,5-dichloro-4-hydroxyphenyl)-N-(2,5,8,11-tetraoxatridecan-13-yl)-1H-1,2,4-triazole-3-carboxamide]
5 | 12.5 | COCCOCCOCCOCCOCCOCCOCCOCCON(Cc1ccc(Oc2ccccc2)cc1)C(=O)c1ncn(-c2cc(Cl)c(O)c(Cl)c2)n1 [121i, N-(2,5,8,11,14,17,20,23-octaoxapentacosan-25-yloxy)-1-(3,5-dichloro-4-hydroxyphenyl)-N-(4-phenoxybenzyl)-1H-1,2,4-triazole-3-carboxamide]
6 | 5.11 | COCCOCCOCCOCCON(Cc1ccc(Oc2ccccc2)cc1)C(=O)c1ncn(-c2cc(Cl)c(O)c(Cl)c2)n1 [122i, N-(2,5,8,11-tetraoxatridecan-13-yloxy)-1-(3,5-dichloro-4-hydroxyphenyl)-N-(4-phenoxybenzyl)-1H-1,2,4-triazole-3-carboxamide]
7 | 8.44 | COCCOCCOCCON(Cc1ccc(Oc2ccccc2)cc1)C(=O)c1ncn(-c2cc(Cl)c(O)c(Cl)c2)n1 [123i, 1-(3,5-dichloro-4-hydroxyphenyl)-N-(2-(2-(2-methoxyethoxy)ethoxy)ethoxy)-N-(4-phenoxybenzyl)-1H-1,2,4-triazole-3-carboxamide]
8 | 2.19 | CON(Cc1ccc(C(C)C)cc1)C(=O)c1ncn(-c2cc(Cl)c(O)c(Cl)c2)n1 [128i, 1-(3,5-dichloro-4-hydroxyphenyl)-N-(4-isopropylbenzyl)-N-methoxy-1H-1,2,4-triazole-3-carboxamide]

Same assay, conditions: oxadiazole-containing compounds (a series), average of at least 2 runs unless annotated n = 1, read-out: IC50

Row | IC50 [µM] | Compound
9 | 18 | O=C(NCc1cccc(F)c1)c1noc(-c2cc(Cl)c(O)c(Cl)c2)n1 [116a, 5-(3,5-dichloro-4-hydroxyphenyl)-N-(3-fluorobenzyl)-1,2,4-oxadiazole-3-carboxamide]
10 | 19.9 | CN(Cc1ccc(F)c(F)c1)C(=O)c1noc(-c2cc(Cl)c(O)c(Cl)c2)n1 [117a, 5-(3,5-dichloro-4-hydroxyphenyl)-N-(3,4-difluorobenzyl)-N-methyl-1,2,4-oxadiazole-3-carboxamide]
11 | 5.67 | O=C(NCc1cc(F)c(F)c(F)c1)c1noc(-c2cc(Cl)c(O)c(Cl)c2)n1 [118a, 5-(3,5-dichloro-4-hydroxyphenyl)-N-(3,4,5-trifluorobenzyl)-1,2,4-oxadiazole-3-carboxamide]
12 | 24.1 | O=C(c1noc(-c2cc(Cl)c(O)c(Cl)c2)n1)N(CCNCc1ccccc1)Cc1ccccc1 [119a, N-benzyl-N-(2-(benzylamino)ethyl)-5-(3,5-dichloro-4-hydroxyphenyl)-1,2,4-oxadiazole-3-carboxamide]
13 | 19.2 | O=C(c1nc(-c2cc(Cl)c(O)c(Cl)c2)no1)N(CCO)Cc1ccccc1 [121a, N-benzyl-3-(3,5-dichloro-4-hydroxyphenyl)-N-(2-hydroxyethyl)-1,2,4-oxadiazole-5-carboxamide]
14 | 19.8 | O=C(c1nc(-c2cc(Br)c(O)c(Br)c2)no1)N(CCO)Cc1ccccc1 [122a, N-benzyl-3-(3,5-dibromo-4-hydroxyphenyl)-N-(2-hydroxyethyl)-1,2,4-oxadiazole-5-carboxamide]
15 | 16.4 | O=C(NCc1ccc(Cl)c(F)c1)c1nc(-c2cc(Cl)c(O)c(Cl)c2)no1 [123a, N-(4-chloro-3-fluorobenzyl)-3-(3,5-dichloro-4-hydroxyphenyl)-1,2,4-oxadiazole-5-carboxamide]
16 | 14.6 | O=C(NCc1ccc(C(F)(F)F)cc1F)c1nc(-c2cc(Cl)c(O)c(Cl)c2)no1 [124a, 3-(3,5-dichloro-4-hydroxyphenyl)-N-(2-fluoro-4-(trifluoromethyl)benzyl)-1,2,4-oxadiazole-5-carboxamide]
17 | 6.76 | O=C(NCc1cccc(-c2ccccc2)c1)c1nc(-c2cc(Cl)c(O)c(Cl)c2)no1 [125a, N-(biphenyl-3-ylmethyl)-3-(3,5-dichloro-4-hydroxyphenyl)-1,2,4-oxadiazole-5-carboxamide]
18 | 23.4 | O=C(NCc1cc(C(F)(F)F)ccc1F)c1nc(-c2cc(Cl)c(O)c(Cl)c2)no1 [126a, 3-(3,5-dichloro-4-hydroxyphenyl)-N-(2-fluoro-5-(trifluoromethyl)benzyl)-1,2,4-oxadiazole-5-carboxamide]
19 | 9.95 | CC(C)Oc1ccc(CNC(=O)c2nc(-c3cc(Cl)c(O)c(Cl)c3)no2)cc1 [127a, 3-(3,5-dichloro-4-hydroxyphenyl)-N-(4-isopropoxybenzyl)-1,2,4-oxadiazole-5-carboxamide]
20 | 12.8 | O=C(NCc1ccc(Cl)cc1)c1nc(-c2cc(Cl)c(O)c(Cl)c2)no1 [128a, N-(4-chlorobenzyl)-3-(3,5-dichloro-4-hydroxyphenyl)-1,2,4-oxadiazole-5-carboxamide]
21 | 16.7 | O=C(NCc1ccccc1C(F)(F)F)c1nc(-c2cc(Cl)c(O)c(Cl)c2)no1 [129a, 3-(3,5-dichloro-4-hydroxyphenyl)-N-(2-(trifluoromethyl)benzyl)-1,2,4-oxadiazole-5-carboxamide]
22 | 9.44 | O=C(NCc1ccc(F)c(Cl)c1)c1nc(-c2cc(Cl)c(O)c(Cl)c2)no1 [130a, N-(3-chloro-4-fluorobenzyl)-3-(3,5-dichloro-4-hydroxyphenyl)-1,2,4-oxadiazole-5-carboxamide]
23 | 6.83 | O=C(NCc1ccc(-c2ccccc2)cc1)c1nc(-c2cc(Cl)c(O)c(Cl)c2)no1 [131a, N-(biphenyl-4-ylmethyl)-3-(3,5-dichloro-4-hydroxyphenyl)-1,2,4-oxadiazole-5-carboxamide]
24 | 16.1 | O=C(NCc1ccc(F)cc1F)c1nc(-c2cc(Cl)c(O)c(Cl)c2)no1 [132a, 3-(3,5-dichloro-4-hydroxyphenyl)-N-(2,4-difluorobenzyl)-1,2,4-oxadiazole-5-carboxamide]
25 | 17.9 | CN(C)c1ccc(CNC(=O)c2nc(-c3cc(Cl)c(O)c(Cl)c3)no2)cc1 [133a, 3-(3,5-dichloro-4-hydroxyphenyl)-N-(4-(dimethylamino)benzyl)-1,2,4-oxadiazole-5-carboxamide]
26 | 8.65 | O=C(NCc1cccc(C(F)(F)F)c1)c1nc(-c2cc(Cl)c(O)c(Cl)c2)no1 [134a, 3-(3,5-dichloro-4-hydroxyphenyl)-N-(3-(trifluoromethyl)benzyl)-1,2,4-oxadiazole-5-carboxamide]
27 | 20.4 | O=C(NCc1cccc(OC(F)F)c1)c1nc(-c2cc(Cl)c(O)c(Cl)c2)no1 [135a, 3-(3,5-dichloro-4-hydroxyphenyl)-N-(3-(difluoromethoxy)benzyl)-1,2,4-oxadiazole-5-carboxamide]
28 | 2.95 | CC(C)(C)c1ccc(CNC(=O)c2nc(-c3cc(Cl)c(O)c(Cl)c3)no2)cc1 [136a, N-(4-tert-butylbenzyl)-3-(3,5-dichloro-4-hydroxyphenyl)-1,2,4-oxadiazole-5-carboxamide]
29 | 24.4 | O=C(NCc1cc(F)cc(F)c1)c1nc(-c2cc(Cl)c(O)c(Cl)c2)no1 [137a, 3-(3,5-dichloro-4-hydroxyphenyl)-N-(3,5-difluorobenzyl)-1,2,4-oxadiazole-5-carboxamide]
30 | 3.84 | CN(Cc1ccc(C(F)(F)F)cc1)C(=O)c1nc(-c2cc(Cl)c(O)c(Cl)c2)no1 [138a, 3-(3,5-dichloro-4-hydroxyphenyl)-N-methyl-N-(4-(trifluoromethyl)benzyl)-1,2,4-oxadiazole-5-carboxamide]
31 | 5.1 | CN(Cc1cccc(C(F)(F)F)c1)C(=O)c1nc(-c2cc(Cl)c(O)c(Cl)c2)no1 [139a, 3-(3,5-dichloro-4-hydroxyphenyl)-N-methyl-N-(3-(trifluoromethyl)benzyl)-1,2,4-oxadiazole-5-carboxamide]
32 | 19.9 | CCN(Cc1ccccc1)C(=O)c1nc(-c2cc(Cl)c(O)c(Cl)c2)no1 [140a, N-benzyl-3-(3,5-dichloro-4-hydroxyphenyl)-N-ethyl-1,2,4-oxadiazole-5-carboxamide]
33 | 7.79 | O=C(NCc1cccc(OCc2ccccc2)c1)c1nc(-c2cc(Cl)c(O)c(Cl)c2)no1 [141a, N-(3-(benzyloxy)benzyl)-3-(3,5-dichloro-4-hydroxyphenyl)-1,2,4-oxadiazole-5-carboxamide]
34 | 10.2 | CN(Cc1ccc(Oc2ccccc2)cc1)C(=O)c1nc(-c2cc(Cl)c(O)c(Cl)c2)no1 [142a, 3-(3,5-dichloro-4-hydroxyphenyl)-N-methyl-N-(4-phenoxybenzyl)-1,2,4-oxadiazole-5-carboxamide]
35 | 5.15 | CC(NC(=O)c1nc(-c2cc(Cl)c(O)c(Cl)c2)no1)c1ccc(Br)cc1 (stereo not drawn) [143a, N-(1-(4-bromophenyl)ethyl)-3-(3,5-dichloro-4-hydroxyphenyl)-1,2,4-oxadiazole-5-carboxamide]
36 | 6.33 | CN(Cc1cccc(Oc2ccccc2)c1)C(=O)c1nc(-c2cc(Cl)c(O)c(Cl)c2)no1 [144a, 3-(3,5-dichloro-4-hydroxyphenyl)-N-methyl-N-(3-phenoxybenzyl)-1,2,4-oxadiazole-5-carboxamide]
